Patent US12144814B2, “Compositions containing paraxanthine and beta-hydroxybutyrate or precursor for increasing neurological and physiological performance” (priority 2023, dated 2024)
Entries after “also recorded” stand apart in the source; their conditions may differ.

Columns and labels:
[1] = tested on: healthy trained male runners; assay: Vigilance Task Test before and after 10 km treadmill run; assay type: in vivo; details: 200 mg paraxanthine, 200 mg caffeine, 5 g BHB, and combinations, FIG. 13
Excerpt: The Vigilance Task Test is another test routinely used in the field, and is used to evaluate a participants ability to sustain attention. The Vigilance Task Test is a sustained attention, reaction timed task test that measures the speed with which participants respond to a visual stimulus. The subjects respond to visual stimuli (e.g., a red dot) by pressing a key as soon as it appears on the computer screen. The light turns on at random, e.g., roughly every couple of seconds or so during the test. The speed of response is measured. Due to the random nature of the test, there is no learning effect. Mean response time is recorded. […] The testing is conducted under double blind, placebo controlled conditions. The subjects include 12 healthy trained male runners, aged 26±5 years. Baseline cognition tests are administered (PRE), the given supplement is ingested, and after 60 minutes of rest, a pre-race cognition test (PRE-EX) is administered. A 10 km run on a treadmill is then performed, followed by a post-race cognition test (POST), The cognition tests include a Vigilance Task Test (measuring the ability to remain heedfully vigilant) and a Berg-Washington Card Sorting Task Test (measuring cognitive flexibility).

[2] = tested on: healthy young adults; assay: Go/No Go Attention and Inhibitory Control Test; assay type: in vivo; details: 200 mg paraxanthine; 5 g BHB; 200 mg paraxanthine and 5 g BHB; baseline and 1-6 hours after supplementation; FIG. 5
Excerpt: Attention and inhibitory control can be measured using a Go/No Go Test, which is used to measure a participant's capacity for sustained attention and response control. The Go/No Go Test is routinely used in the field, and will be familiar to those of skill in the art. In the Go/No Go Test, participants watch a 2×2 array of squares, and then there is a successive presentation of letters (e.g., either P or R) and the participant responds to a target letter by pressing the corresponding button on a keyboard. The single letter (P or R) is presented in one of the 4 squares for 500 milliseconds, with 1500 milliseconds between subsequent stimuli. For the P-Go condition, participants are asked to press the P key in response to the letter P, and abstain from responding to the letter R. For the R-reversal condition, the participants are asked to respond to the letter R, and abstain when seeing the letter P. Mean response time, as well as percentage of correct answers are recorded. When running each such tests, subjects are given either paraxanthine+BHB, paraxanthine alone, BHB alone, or a placebo. The dosage amounts are 200 mg paraxanthine and 5 g of BHB, 200 mg of paraxanthine alone, 5 g of BHB alone, or a placebo. The testing is conducted under double blind, placebo controlled conditions. […]

[3] = Age-related cognitive decline study; assay type: in vivo
[4] = tested on: dopaminergic neurons; details: cited from earlier work
[5] = molecular target: cGMP-preferring phosphodiesterase (PDE9) (Homo sapiens, UniProt O76083); details: cited from earlier work
Sequence of cGMP-preferring phosphodiesterase (PDE9) (O76083 whole entry): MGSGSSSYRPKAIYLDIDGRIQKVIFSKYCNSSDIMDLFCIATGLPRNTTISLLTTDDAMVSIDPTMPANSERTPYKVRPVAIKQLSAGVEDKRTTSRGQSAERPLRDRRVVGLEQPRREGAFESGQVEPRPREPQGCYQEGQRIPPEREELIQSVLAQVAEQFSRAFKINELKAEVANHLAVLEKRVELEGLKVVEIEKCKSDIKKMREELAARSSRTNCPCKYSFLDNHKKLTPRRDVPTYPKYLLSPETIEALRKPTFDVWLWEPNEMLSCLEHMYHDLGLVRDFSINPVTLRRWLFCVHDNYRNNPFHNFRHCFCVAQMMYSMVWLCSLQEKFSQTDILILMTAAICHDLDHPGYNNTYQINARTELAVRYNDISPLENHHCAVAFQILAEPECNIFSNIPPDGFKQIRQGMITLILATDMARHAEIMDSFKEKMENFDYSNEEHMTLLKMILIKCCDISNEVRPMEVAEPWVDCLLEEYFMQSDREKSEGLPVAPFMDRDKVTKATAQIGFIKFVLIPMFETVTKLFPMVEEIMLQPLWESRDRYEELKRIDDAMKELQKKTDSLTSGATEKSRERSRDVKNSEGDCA

[6] = tested on: healthy young adults; assay: Vigilance Task Test; assay type: in vivo; details: 200 mg paraxanthine; 5 g BHB; 200 mg paraxanthine and 5 g BHB; baseline and 1-6 hours after supplementation; FIG. 6
Excerpt: The Vigilance Task Test is another test routinely used in the field, and is used to evaluate a participants ability to sustain attention. The Vigilance Task Test is a sustained attention, reaction timed task test that measures the speed with which participants respond to a visual stimulus. The subjects respond to visual stimuli (e.g., a red dot) by pressing a key as soon as it appears on the computer screen. The light turns on at random, e.g., roughly every couple of seconds or so during the test. The speed of response is measured. Due to the random nature of the test, there is no learning effect. Mean response time is recorded. When running each such tests, subjects are given either paraxanthine+BHB, paraxanthine alone, BHB alone, or a placebo. The dosage amounts are 200 mg paraxanthine and 5 g of BHB, 200 mg of paraxanthine alone, 5 g of BHB alone, or a placebo. The testing is conducted under double blind, placebo controlled conditions. The subjects include 13 healthy young adults (10 male, 3 female), aged 24±5 years; height 170.0±11.8 cm; weight 72.9±19.3 kg.

[7] = metabolite of caffeine, cited from earlier work
[8] = elevated doses; cited from earlier work
[9] = Clinical Stroop Test study; assay type: in vivo; details: paraxanthine 200 mg; BHB 5 g; paraxanthine 200 mg with BHB 5 g; 6-week period; FIGS. 15A-15C
Excerpt: The Stroop effect refers to the delay in reaction time between congruent and incongruent stimuli. […] When paired with paraxanthine, the combination provides a synergistic improvement in mental acuity.

[10] = in vivo; cited from earlier work
[11] = tested on: healthy young adults; assay: Sternberg Test; assay type: in vivo; details: 200 mg paraxanthine; 5 g BHB; 200 mg paraxanthine and 5 g BHB; letter length 2, 4, 6; FIGS. 9-11
Excerpt: The Sternberg Test is a test routinely used in the field to evaluate working memory, and ability to make use of short-term memory. A lower reaction time means that participants can access their working memory faster. The Sternberg Task Test is a widely used paradigm for studying short term/working memory involving cognitive control processes. Participants are asked to remember a short series of letters or other characters and then the participants has to respond if the series of letters or characters is present in a larger series of letters or characters. Reaction time is measured when the remembered short series is both present or absent. Mean response time is recorded. When running each such tests, subjects are given either paraxanthine+BHB, paraxanthine alone, BHB alone, or a placebo. The dosage amounts are 200 mg paraxanthine and 5 g of BHB, 200 mg of paraxanthine alone, 5 g of BHB alone, or a placebo. The testing is conducted under double blind, placebo controlled conditions. The subjects include 13 healthy young adults (10 male, 3 female), aged 24±5 years; height 170.0±11.8 cm; weight 72.9±19.3 kg.

Cn1c(=O)[nH]c2ncn(C)c2c1=O [paraxanthine, 1,7-dimethylxanthine]
Vigilance Task Test response times [1]: some benefit | Go/No Go Test average response time [2]: faster response times | Acetylcholine ([3]; PX 25 mg): 61.04 U/mL | BDNF ([3]; PX 25 mg): 828.05 pg/mL | Catalase ([3]; PX 25 mg): 30.24 U/mL | Dopamine ([3]; PX 25 mg): 493.65 ng/L | Escape Latency ([3]; PX 25 mg): 49.9 s | Glutathione ([3]; PX 25 mg): 24.04 µg/mL | Acetylcholine ([3]; PX 100 mg): 69.27 U/mL | BDNF ([3]; PX 100 mg): 939.15 pg/mL | Catalase ([3]; PX 100 mg): 38.91 U/mL | Dopamine ([3]; PX 100 mg): 596.32 ng/L | Escape Latency ([3]; PX 100 mg): 21.31 s | Glutathione ([3]; PX 100 mg): 34.41 µg/mL | protection against neurodegeneration and the loss of synaptic function [4]: strongly protective | inhibition of PDE9 [5]: inhibits PDE9; also recorded: selective inhibitor | Vigilance Task Test average response time [6]: faster response times | share of the methylxanthine metabolic by-products ([7]; FIG. 2): about 84% | share of caffeine ingested [7]: 70-72% | hypothermia and reduced locomotor activity [8]: no such problems are observed | Stroop test number of correct answers [9]: some improvement | Stroop test reaction speed [9]: some improvement | locomotor activation effects [10]: stronger locomotor activation effects than caffeine | Sternberg Test mean response time [11]: decreased mean response time
